Test results taken from ChEMBL document CHEMBL4732190, “Identification of Potent and Long-Acting Single-Chain Peptide Mimetics of Human Relaxin-2 for Cardiovascular Diseases” (J Med Chem, 2021).
≈ marks a conversion by molar mass, not a printed value. *1 amine or outer side, *2 acyl side, *3 side chain or, on linkers, in order; H or OH if unused. Where a SMILES comes first, the peptide text is derived from it. [ ]: non-standard residue; d: D form. The star is where a group is joined. X5 = CCCCCCCCCCCCCCCCCCC(=O)[C@H](CCC(=O)O)NC(=O)[C@H](CCC(=O)O)NC(=O)[C@H](CCC(=O)O)NC(=O)[C@H](CCCCN)NC(=O)COCC(=O)NCCCOCCOCCOCCCNC(=O)COCC(=O)NCCCOCCOCCOCCCNC(=O)COCC(=O)NCCCOCCOCCOCCCN*; PEG11 = NCCOCCOCCOCCOCCOCCOCCOCCOCCOCCOCCOCCC(=O)O; X3 = CCCCCCCCCCCCCCCCCCC(=O)[C@H](CCC(N)=O)N*; X6 = CCCCCCCCCCCCCCCCCCC(=O)[C@H](CCC(=O)O)N*; X2 = CCCCCCCCCCCCCCCCCC(=O)[C@H](CCC(N)=O)N*; β2hAla(2S) = C[C@@H](CN[*:1])C(=O)[*:2]; hLys = NCCCCC[C@H](N)C(=O)O; Nle = CCCC[C@H](N)C(=O)O; AEEA = NCCOCCOCC(=O)O

What was measured:
[1] = target: T1, Relaxin receptor 1 (Homo sapiens) (UniProt Q9HBX9); test: Agonist activity at RXFP1 endogenously expressed in human OVCAR-5 cells assessed as increase in IBMX-induced cAMP accumulation pretreated with IBMX for 40 mins followed by compound addition and measured after 30 mins by HTRF assay relative to relaxin; assay type: functional, cell-based; settings: filed as agonist
T1 sequence (whole entry): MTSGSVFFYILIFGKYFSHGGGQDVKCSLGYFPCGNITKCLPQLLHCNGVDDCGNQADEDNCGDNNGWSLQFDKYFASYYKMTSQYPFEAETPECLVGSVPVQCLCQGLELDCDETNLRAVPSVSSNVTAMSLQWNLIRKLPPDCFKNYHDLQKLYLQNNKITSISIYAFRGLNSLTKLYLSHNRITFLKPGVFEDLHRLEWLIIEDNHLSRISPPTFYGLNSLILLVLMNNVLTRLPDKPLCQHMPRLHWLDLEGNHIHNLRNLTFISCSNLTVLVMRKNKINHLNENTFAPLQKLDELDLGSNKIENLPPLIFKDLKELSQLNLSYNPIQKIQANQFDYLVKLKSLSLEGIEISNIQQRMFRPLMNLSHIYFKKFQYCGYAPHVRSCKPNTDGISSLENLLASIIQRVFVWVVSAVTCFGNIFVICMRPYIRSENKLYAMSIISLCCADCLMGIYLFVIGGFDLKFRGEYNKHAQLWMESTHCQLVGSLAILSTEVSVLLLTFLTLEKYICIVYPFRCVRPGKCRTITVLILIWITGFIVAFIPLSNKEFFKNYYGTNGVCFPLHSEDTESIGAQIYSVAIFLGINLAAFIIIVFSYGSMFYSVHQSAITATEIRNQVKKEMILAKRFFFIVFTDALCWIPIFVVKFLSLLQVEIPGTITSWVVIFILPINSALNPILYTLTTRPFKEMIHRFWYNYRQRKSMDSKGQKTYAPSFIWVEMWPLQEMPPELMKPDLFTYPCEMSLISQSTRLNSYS

[2] = target: T1, Relaxin receptor 1 (Homo sapiens); test: Selectivity ratio of EC50 for agonist activity at RXFP1 endogenously expressed in human OVCAR-5 cells in presence of 2 % HSA to EC50 for agonist activity at RXFP1 endogenously expressed in human OVCAR-5 cells in absence of HSA; assay type: cell-based
Relaxin receptor 1 [3] = target: T2, Relaxin receptor 1 (Homo sapiens, UniProt Q9HBX9); test: Agonist activity at RXFP1 endogenously expressed in human OVCAR-5 cells assessed as increase in IBMX-induced cAMP accumulation pretreated with IBMX for 40 mins followed by compound addition and measured after 30 mins in presence of 2 % HSA by HTRF assay; assay type: functional, cell-based
T2 sequence (Q9HBX9 whole entry): T1 sequence (whole entry)

[4] = target: T1, Relaxin receptor 1 (Homo sapiens); test: Agonist activity at RXFP1 endogenously expressed in human OVCAR-5 cells assessed as increase in IBMX-induced cAMP accumulation pretreated with IBMX for 40 mins followed by compound addition and measured after 30 mins in presence of 2 % HSA by HTRF assay relative to control; assay type: functional, cell-based; settings: filed as agonist
[5] = Half life in Sprague-Dawley rat at 1 mg/kg, iv measured upto 72 hrs by LC-HRMS analysis; assay type: ADME, organism-based; settings: in vivo
Relaxin receptor 1 [6] = target: T2, Relaxin receptor 1; test: Agonist activity at RXFP1 endogenously expressed in human OVCAR-5 cells assessed as increase in IBMX-induced cAMP accumulation pretreated with IBMX for 40 mins followed by compound addition and measured after 30 mins by HTRF assay; assay type: functional, cell-based
[7] = Positive chronotropic activity in pithed Sprague-Dawley rat assessed as increase in heart rate at 20 to 1000 mg/kg, iv administered as bolus dose measured after 60 mins post dose; assay type: ADME, organism-based; settings: in vivo, 1 h, dose 20-1000 mg/kg
[8] = Positive chronotropic activity in pithed Sprague-Dawley rat assessed as increase in heart rate at 1000 mg/kg, iv administered as bolus dose measured after 60 mins post dose; assay type: ADME, organism-based; settings: in vivo, 1 h
[9] = Stability in rat plasma assessed as parent compound remaining level at 5 uM remaining after 4 hrs; assay type: ADME, cell-free; settings: read-out: Stabilty
[10] = Stability in human plasma assessed as parent compound remaining level at 5 uM remaining after 4 hrs; assay type: ADME, cell-free; settings: read-out: Stabilty
[11] = Aqueous solubility of compound in phosphate buffer at pH 7.4 measured after 24 hrs by UPLC analysis; assay type: physicochemical
[12] = Bioavailability in Sprague-Dawley rat at 3 mg/kg, sc measured upto 72 hrs by LC-HRMS analysis; assay type: ADME, organism-based; settings: in vivo

Structure (SMILES) | Emax [1] | Ratio EC50 [2] | EC50 (Relaxin receptor 1 [3]) | Emax [4] | half-life [5] | EC50 (Relaxin receptor 1 [6]) | Activity [7] | Emin [8] | remaining at 4 h, 5 µM [9] | remaining at 4 h, 5 µM [10] | solubility at 24 h [11] | bioavailability [12]
CCCCCCCCCCCCCCCCCCC(=O)[C@H](CCC(=O)O)NC(=O)[C@H](CCC(=O)O)NC(=O)[C@H](CCC(=O)O)NC(=O)[C@H](CCCCN)NC(=O)COCC(=O)NCCCOCCOCCOCCCNC(=O)COCC(=O)NCCCOCCOCCOCCCNC(=O)COCC(=O)NCCCOCCOCCOCCCNC(=O)[C@H](CCCCCNC(C)=O)NC(=O)[C@H](CCCCN)NC(=O)[C@H](CCCCN)NC(=O)[C@H](CCCNC(=N)N)NC(=O)[C@@H](C)CNC(=O)[C@H](CO)NC(=O)[C@H](Cc1c[nH]c2ccccc12)NC(=O)[C@@H](NC(=O)[C@H](CO)NC(=O)[C@H](CCCCCNC(C)=O)NC(=O)[C@H](CCCCN)NC(=O)[C@H](CCCC)NC(=O)[C@H](CCSC)NC(=O)CNC(=O)[C@H](CCC(=O)O)NC(=O)[C@@H](C)CNC(=O)[C@@H](C)CNC(=O)[C@@H](NC(=O)[C@H](CCCCCNC(C)=O)NC(=O)[C@H](CCCCN)NC(=O)[C@H](C)NC(=O)[C@H](CCCNC(=N)N)NC(=O)[C@@H](NC(=O)[C@H](CCCCN)NC(=O)[C@H](CCC(=O)O)NC(=O)[C@H](CCCNC(=N)N)NC(=O)[C@H](CCC(=O)O)NC(=O)CNC(=O)[C@H](CCC(=O)O)NC(=O)[C@H](CC(C)C)NC(C)=O)C(C)C)[C@@H](C)CC)[C@@H](C)O (Ac-LEGEREKVRAK[hLys](Ac)I[β2hAla(2S)][β2hAla(2S)]EGM[Nle]K[hLys](Ac)STWS[β2hAla(2S)]RKK[hLys](Ac)-X5) | 88% | 61 | 24.5 nM | 85% | 3.96 h | 0.4 nM | – | – | – | – | – | –
CCCCCCCCCCCCCCCCCC(=O)[C@H](CCC(N)=O)NC(=O)[C@H](CCC(=O)O)NC(=O)[C@H](CCC(=O)O)NC(=O)[C@H](CCCCN)NC(=O)COCCOCCNC(=O)COCCOCCNC(=O)COCCOCCNC(=O)[C@H](CCCCCNC(C)=O)NC(=O)[C@H](CCCCN)NC(=O)[C@H](CCCCN)NC(=O)[C@H](CCCNC(=N)N)NC(=O)[C@@H](C)CNC(=O)[C@H](CO)NC(=O)[C@H](Cc1c[nH]c2ccccc12)NC(=O)[C@@H](NC(=O)[C@H](CO)NC(=O)[C@H](CCCCCNC(C)=O)NC(=O)[C@H](CCCCN)NC(=O)[C@H](CCCC)NC(=O)[C@H](CCSC)NC(=O)CNC(=O)[C@H](CCC(=O)O)NC(=O)[C@@H](C)CNC(=O)[C@@H](C)CNC(=O)[C@@H](NC(=O)[C@H](CCCCCNC(C)=O)NC(=O)[C@H](CCCCN)NC(=O)[C@H](C)NC(=O)[C@H](CCCNC(=N)N)NC(=O)[C@@H](NC(=O)[C@H](CCCCN)NC(=O)[C@H](CCC(=O)O)NC(=O)[C@H](CCCNC(=N)N)NC(=O)[C@H](CCC(=O)O)NC(=O)CNC(=O)[C@H](CCC(=O)O)NC(=O)[C@H](CC(C)C)NC(C)=O)C(C)C)[C@@H](C)CC)[C@@H](C)O (Ac-LEGEREKVRAK[hLys](Ac)I[β2hAla(2S)][β2hAla(2S)]EGM[Nle]K[hLys](Ac)STWS[β2hAla(2S)]RKK[hLys](Ac)[AEEA][AEEA][AEEA]KEE-X2) | 89% | 92 | 18.4 nM | 89% | 3.9 h | 0.2 nM | Dose-dependent effect | 26% | 114% | 111% | 11400 µg/mL (≈ 2330 µM) | –
CCCCCCCCCCCCCCCCCCC(=O)[C@H](CCC(=O)O)NC(=O)[C@H](CCC(=O)O)NC(=O)[C@H](CCC(=O)O)NC(=O)[C@H](CCCCN)NC(=O)COCCOCCNC(=O)COCCOCCNC(=O)COCCOCCNC(=O)[C@H](CCCCCNC(C)=O)NC(=O)[C@H](CCCCN)NC(=O)[C@H](CCCCN)NC(=O)[C@H](CCCNC(=N)N)NC(=O)[C@@H](C)CNC(=O)[C@H](CO)NC(=O)[C@H](Cc1c[nH]c2ccccc12)NC(=O)[C@@H](NC(=O)[C@H](CO)NC(=O)[C@H](CCCCCNC(C)=O)NC(=O)[C@H](CCCCN)NC(=O)[C@H](CCCC)NC(=O)[C@H](CCSC)NC(=O)CNC(=O)[C@H](CCC(=O)O)NC(=O)[C@@H](C)CNC(=O)[C@@H](C)CNC(=O)[C@@H](NC(=O)[C@H](CCCCCNC(C)=O)NC(=O)[C@H](CCCCN)NC(=O)[C@H](C)NC(=O)[C@H](CCCNC(=N)N)NC(=O)[C@@H](NC(=O)[C@H](CCCCN)NC(=O)[C@H](CCC(=O)O)NC(=O)[C@H](CCCNC(=N)N)NC(=O)[C@H](CCC(=O)O)NC(=O)CNC(=O)[C@H](CCC(=O)O)NC(=O)[C@H](CC(C)C)NC(C)=O)C(C)C)[C@@H](C)CC)[C@@H](C)O (Ac-LEGEREKVRAK[hLys](Ac)I[β2hAla(2S)][β2hAla(2S)]EGM[Nle]K[hLys](Ac)STWS[β2hAla(2S)]RKK[hLys](Ac)[AEEA][AEEA][AEEA]KEE-X6) | 88% | 198 | 19.8 nM | 82% | 3.4 h | 0.1 nM | – | – | – | – | – | –
CCCCCCCCCCCCCCCCCCC(=O)[C@H](CCC(N)=O)NC(=O)[C@H](CCC(=O)O)NC(=O)[C@H](CCC(=O)O)NC(=O)[C@H](CCCCN)NC(=O)CCOCCOCCOCCOCCOCCOCCOCCOCCOCCOCCOCCNC(=O)[C@H](CCCCCNC(C)=O)NC(=O)[C@H](CCCCN)NC(=O)[C@@H](C)CNC(=O)[C@@H](C)CNC(=O)[C@@H](NC(=O)[C@H](CCCCCNC(C)=O)NC(=O)[C@H](CCCCN)NC(=O)[C@H](C)NC(=O)[C@H](CCCNC(=N)N)NC(=O)[C@@H](NC(=O)[C@H](CCCCN)NC(=O)[C@H](CCC(=O)O)NC(=O)[C@H](CCCNC(=N)N)NC(=O)[C@H](CCC(=O)O)NC(=O)CNC(=O)[C@H](CCC(=O)O)NC(=O)[C@H](CC(C)C)NC(C)=O)C(C)C)[C@@H](C)CC (Ac-LEGEREKVRAK[hLys](Ac)I[β2hAla(2S)][β2hAla(2S)]K[hLys](Ac)[PEG11]KEE-X3) | 95% | 15 | 9 nM | 84% | 43 h | 0.6 nM | – | – | 80% | 93% | 5400 µg/mL (≈ 1570 µM) | –
CCCCCCCCCCCCCCCCCC(=O)[C@H](CCC(N)=O)NC(=O)[C@H](CCC(=O)O)NC(=O)[C@H](CCC(=O)O)NC(=O)[C@H](CCCCN)NC(=O)CCOCCOCCOCCOCCOCCOCCOCCOCCOCCOCCOCCNC(=O)[C@H](CCCCN)NC(=O)[C@H](CCCNC(=N)N)NC(=O)[C@@H](C)CNC(=O)[C@H](CO)NC(=O)[C@H](Cc1c[nH]c2ccccc12)NC(=O)[C@@H](NC(=O)[C@H](CO)NC(=O)[C@H](CCCC)NC(=O)[C@H](CCSC)NC(=O)CNC(=O)[C@H](CCC(=O)O)NC(=O)[C@@H](C)CNC(=O)[C@@H](C)CNC(=O)[C@@H](NC(=O)[C@H](CCC(N)=O)NC(=O)[C@H](C)NC(=O)[C@H](CCCNC(=N)N)NC(=O)[C@@H](NC(=O)[C@H](CCCCN)NC(=O)[C@H](CCC(=O)O)NC(=O)[C@H](CCCNC(=N)N)NC(=O)[C@H](CCC(=O)O)NC(=O)CNC(=O)[C@H](CCC(=O)O)NC(=O)[C@H](CC(C)C)NC(C)=O)C(C)C)[C@@H](C)CC)[C@@H](C)O (Ac-LEGEREKVRAQI[β2hAla(2S)][β2hAla(2S)]EGM[Nle]STWS[β2hAla(2S)]RK[PEG11]KEE-X2) | 79% | 31 | 31 nM | 80% | 4.8 h | 1 nM | – | – | – | – | – | 100%
